Test results reported in US11730731B2 (INVENTAGE LAB INC., priority 2021, dated 2023).

Columns and labels:
[1] = Safety assessment in vivo by body weight, CIA mice; details: Example 3, CIA mouse, MTX 1 mg/kg ip twice/week, Xeljanz 10 mg/kg oral once/day, MTX 1 mg/kg + Q-DDS 3 mg/mouse; for D23 body weight Mean: day 23 (baseline); for D41 body weight Mean: day 41; for Change of body weight (%, D23 body weight 100%) Mean: day 41 vs day 23
Procedure: The safety in vivo of the test substance was evaluated by measuring the body weight of mouse in each administration group of Example 4.1.
For the safety evaluation of the test substance, the body weight of mouse was measured daily from before the start of administration (The 23th day) to just before the end of administration (The 41th day), and the body weight (%) of the mouse for each administration group over the time (day) and the body weight on the 41th day were shown in FIG. 16A, FIG. 16B and Table 27.

[2] = tested on: murine collagen-induced arthritis (CIA); test: Clinical evaluation of arthritis activity (clinical arthritis index, incidence) in collagen-induced arthritis mice; type: in vivo, mouse; set-up: CAI-AUC Mean / Incidence-AUC Mean: unit not given here; details: for CAI Mean: naltrexone (Revia Tablet) 10 mg/kg oral once/day
Procedure: As a model of murine collagen-induced arthritis (CIA), 6 to 10 week-old male mice of DBA/1 J strain was prepared. […] The number of experimental animals per cage was kept under 6, and a cage was exchanged twice a week and feed was supplied.
A 2 mg/mL collagen solution was prepared by dissolving bovine type 2 collagen in 10 mM acetic acid. After emulsifying by mixing 2 mg/mL of Complete Freund's adjuvant and collagen solution in a 1:1 (v/v) ratio, it was intradermally injected into the tail of mouse at a dose of 100 μl/animal (first immunization, day 0). After emulsifying by mixing incomplete Freund's adjuvant […] and collagen solution in a 1:1 (v/v) ratio on the 21th day, it was intradermally injected into the tail of mouse at a dose of 100 μl/animal (the secondary immunization, on the 21th day). After that, mice were randomly divided into groups and assigned to experimental groups.
The refrigerated test substance was standed at room temperature 1 hour before administration and dissolved in 0.15 mL of water for injection. 0.15 mL of the test substance was filled using a syringe with a 21 G needle. The needle was changed to 23 G within 2 minutes after filling and the mice were injected.
After administration of the test substance to the collagen-induced arthritis mouse model, the occurrence and level of inflammation were regularly observed from the date of group separation to the end of the experiment (the 41th day). Inflammation level was given a score of 0 to 4 for each paw according to the criteria in Table 4 below, and the sum was used as a clinical arthritis index (CAI).
When the clinical index of each paw was 2 score or higher, it was determined that arthritis occurred, and the incidence was defined as 100% when arthritis occurred in […].
After administration of the test substance to the collagen-induced arthritis mouse model, the occurrence and level of inflammation were regularly observed from the date of group separation to the end date of the experiment (the 41th day). Inflammation level was given a score of 0 to 4 for each paw according to the criteria in Table 4 above, and the sum was used as a clinical arthritis index (CAI).
After administration of the test substance to the collagen-induced arthritis mouse model, the occurrence and level of inflammation were regularly observed from the date of group separation to the end of the experiment (the 41th day). Inflammation level was given a score of 0 to 4 for each paw according to the criteria in Table 4 above, and the sum was used as a clinical arthritis index (CAI).

[3] = tested on: murine collagen-induced arthritis (CIA); test: Histological estimation of hind paw tissue, toluidine blue staining, CIA mice; type: in vivo, mouse; set-up: scale not given here; details: day 41
Procedure: (§1) Mice were sacrificed on the 41th day, which is the end of the experiment, and the tissues of the hind paws were stained with hematoxylin/eosin. Hematoxylin/eosin staining was used to evaluate the activity of inflammation in the arthritic tissue, and toluidine blue staining was performed to confirm the histological therapeutic effect on cartilage destruction.
The hind paw tissue of the mouse was stained with toluidine blue, and 4 sites (100 magnification) for each tissue were photographed. Two or more investigators evaluated the items of matrix staining, surface regularity, and cartilage thickness. The scoring criteria for each item was described in Table 9, and the average score of 4 sites was calculated as the score of each
In the same manner as in Example 2.3. (2), the hind paw tissue of the mouse was stained with toluidine blue, and items such as photographing and matrix staining, surface regularity, and cartilage thickness were evaluated. The scoring criteria for each item were described in Table 9, and the average score of 4 sites was calculated as the score of each tissue.
In the same manner as in Example 2.3. (2) above, the hind paw tissue of the mouse was stained with toluidine blue, and items such as photographing and matrix staining, surface regularity, and cartilage thickness were evaluated. The scoring criteria for each item is described in Table 9, and the average score of 4 sites was calculated as the score of each tissue.

[4] = tested on: murine collagen-induced arthritis (CIA); test: Histological estimation of hind paw tissue, hematoxylin/eosin staining, CIA mice; type: in vivo, mouse; set-up: scale not given here; details: day 41
Procedure: as §1
The hind paw tissue of the mouse was stained with hematoxylin/eosin, and 4 sites (100 magnification) for each tissue were photographed. Two or more investigators evaluated the items of synovial hyperplasia, pannus formation, cartilage destruction, and bone erosion for hematoxylin/eosin staining. The scoring criteria for each item were described in Table 7, and the average score of 4 sites was calculated as the score of each tissue.
Hematoxylin/eosin staining was performed and evaluated in the same manner as in Example 2.3. (1) above, and the score for items of synovial hyperplasia, pannus formation, cartilage destruction, and bone erosion was calculated by scoring each tissue as the average of the score of 4 sites based on Table 7 above.

[5] = tested on: murine collagen-induced arthritis (CIA); test: Imaging evaluation of arthritis using micro-CT, CIA mice; type: in vivo; details: Example 3, CIA mouse; MTX 1 mg/kg ip twice/week; Xeljanz 10 mg/kg oral once/day; MTX 1 mg/kg + Q-DDS 3 mg/mouse
Procedure: (§2) The radiographs were 3D rendered using the Quantum FX μCT imaging system (Perkin Elmer, MA), and then the radiological score was evaluated, and the bone volume ratio (Bone volume [BV]/Tissue volume [Tissue volume; TV]) and bone surface density (Bone surface area (BS)/Bone volume (BV)) were also measured. Two or more investigators performed blind evaluation for joint destruction, and the indicators in Table 17 below were used as the scoring criteria. The average value of the researchers' blind evaluation data was used as the score, and the average score of the paw tissue was calculated as the score of each group.
as §2, with “[BV]/Tissue” for “[BV]/Tissue volume [Tissue”, “TV)” for “TV])”, “(BV)), and cortical bone thickness” for “(BV))”, “researchers” for “investigators”, “above” for “below”

[6] = Example 2, CIA mouse, methotrexate 1 mg/kg ip twice/week, naltrexone 10 mg/kg oral once/day, naltrexone DDS 3 mg/mouse sc once on day 23
[7] = Example 2, CIA mouse, methotrexate 1 mg/kg ip twice/week, naltrexone DDS 3 mg/mouse sc once on day 23
[8] = Example 3, CIA mouse, MTX 1 mg/kg ip twice/week, Xeljanz 10 mg/kg oral once/day, MTX 1 mg/kg + Q-DDS 3 mg/mouse
[9] = Example 2, CIA mouse, MTX 1 mg/kg, naltrexone 10 mg/kg oral, naltrexone DDS 3 mg/mouse

Row | SMILES | D23 body weight Mean [1] | D41 body weight Mean [1] | Change of body weight (%, D23 body weight 100%) Mean [1] | Incidence (%) Mean [2, 6] | CAI Mean [2, 7] | CAI (D41) Mean [2, 8] | CAI-AUC Mean [2, 8] | Incidence (%) Mean [2, 8] | Incidence-AUC Mean [2, 8] | Cartilage thickness score Mean (toluidine blue) [3, 9] | Matrix staining score Mean (toluidine blue) [3, 9] | Surface regularity score Mean (toluidine blue) [3, 9] | Cartilage thickness score Mean (toluidine blue) [3, 8] | Matrix staining score Mean (toluidine blue) [3, 8] | Surface regularity score Mean (toluidine blue) [3, 8] | Bone erosion score Mean (hematoxylin/eosin) [4, 9] | Cartilage destruction score Mean (hematoxylin/eosin) [4, 9] | Pannus formation score Mean (hematoxylin/eosin) [4, 9] | Synovial hyperplasia score Mean (hematoxylin/eosin) [4, 9] | Bone erosion score Mean (hematoxylin/eosin) [4, 8] | also measured
1 | CN(Cc1cnc2nc(N)nc(N)c2n1)c1ccc(C(=O)N[C@@H](CCC(=O)O)C(=O)O)cc1 [Methotrexate, methotrexate] | 22.7 g | 23.8 g | 104.7% | 20.83% | 5.92 | 6.35 | 71.20 | 30.0% | 170.0 | 0.11 | 0.61 | 0.34 | 0.38 | 1.15 | 1.02 | 0.08 | 0.50 | 0.14 | 0.91 | 0.92 | CAI-AUC Mean [2, 6]: 46.6; Incidence-AUC Mean [2, 6]: 185.4; Cartilage destruction score Mean (hematoxylin/eosin) [4, 8]: 1.02; Pannus formation score Mean (hematoxylin/eosin) [4, 8]: 0.92; Synovial hyperplasia score Mean (hematoxylin/eosin) [4, 8]: 1.38; Bone surface area/bone volume (mm^−1) Mean (micro-CT) [5]: 6.12 mm^−1; Bone volume/tissue volume (%) Mean (micro-CT) [5]: 31.25%; Radiological score Mean (joint destruction, micro-CT) [5]: 1.67
2 | O=C1CC[C@@]2(O)[C@H]3Cc4ccc(O)c5c4[C@@]2(CCN3CC2CC2)[C@H]1O5 [Naltrexone, 17-(cyclopropylmethyl)-4,5α-epoxy-3,14-dihydroxymorphinan-6-one] | – | – | – | 41.67% | 8.25 | – | – | – | – | 0.39 | 0.92 | 0.80 | – | – | – | 0.58 | 0.98 | 0.58 | 1.27 | – | –
3 | C[C@@H]1CCN(C(=O)CC#N)C[C@@H]1N(C)c1ncnc2[nH]ccc12 [Xeljanz ®, Tofacitinib] | 21.7 g | 21.6 g | 99.6% | – | – | 6.25 | 74.50 | 27.5% | 263.8 | – | – | – | 0.56 | 1.42 | 1.13 | – | – | – | – | 1.13 | Cartilage destruction score Mean (hematoxylin/eosin) [4, 8]: 1.38; Pannus formation score Mean (hematoxylin/eosin) [4, 8]: 1.13; Synovial hyperplasia score Mean (hematoxylin/eosin) [4, 8]: 1.56; Bone surface area/bone volume (mm^−1) Mean (micro-CT) [5]: 6.52 mm^−1; Bone volume/tissue volume (%) Mean (micro-CT) [5]: 25.27%; Radiological score Mean (joint destruction, micro-CT) [5]: 2.08
